Source: patent US9333188B2, “Composition and method for improving survival of bee colonies” (Science in Water B.V., priority 2012, dated 2016)

System: bees
Assay: Beekeeper field trial: winter survival of bee hives after feeding
Type: in vivo
Details: populations given only iron(II) fumarate
Description: In a trial, a number or beekeepers (16) used a solution of vinasse containing dissolved iron(II) fumarate with the goal of reducing instances of winter mortality and CCD. This solution was mixed with 100-200 ml of sugar syrup. The solution thus obtained was administered to bees with their feed. The quantities and results were as follows: A total of approximately 1,000 mg of iron(II) fumarate, or 333 mg Fe (i.e. 5.8 millimoles iron(II)) was administered per 5 kg of bees. This quantity was administered in small portions. The initial moments of the series administrations ranged from 5 August 2011 to 15 September 2011. The administration frequencies ranged from one time per week to one time per 3 days. If administration was started late in the season, administration was one time per 3 days to ensure that a consistent total amount of iron(II) fumarate was administered across the test populations. […] In a control populations given only pure vinasse the queens were dead within 14 days; these populations were then not viable and after the death of the queen, remaining bees in the population were merged with another population. In one case, the total amount of iron(II) fumarate and vinasse was added to 15 kg of sugar syrup. This emulsion was administered as a winter sugar, until the mixture was consumed. […]

SMILES: O=C([O-])/C=C/C(=O)[O-].[Fe+2] [iron(II) fumarate]
- winter survival of control populations: survived the winter, but in a very weak state
